US8993565B2, “(6-oxo-1,6-dihydropyrimidin-2-yl)amide derivatives, preparation thereof and pharmaceutical use thereof as AKT(PKB) phosphorylation inhibitors” (Sanofi, priority 2009, dated 2015)

Columns and labels:
[1] = test system: AKT protein phosphorylated on serine 473 (pAKT-S473); experiment: Study of pAKT expression in PC3 human prostate carcinoma cells measured by western blotting (Test A); format: cell-based; conditions: PC-3, inhibition of AKT phosphorylation (pAKT-S473), 1 to 2 hours incubation, absolute IC50, mean of two experiments
[2] = test system: AKT protein phosphorylated on serine 473 (P-AKT-S473); experiment: Study of pAKT expression in PC3 human prostate carcinoma cells measured by the MSD Multi-spot Biomarker Detection technique (Test B); format: cell-based; conditions: PC-3, inhibition of AKT phosphorylation (P-AKT-S473), MSD sandwich immunoassay, 1 to 2 h incubation, absolute IC50, mean of 2 experiments
Method in brief: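 Lysate P-AKT-S473 quantified by MSD electrochemiluminescent sandwich immunoassay; inhibition vs DMSO and cell-free background, IC50 averaged over 2 experiments.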

| melting point [°C] | IC50 [1] [nM] | IC50 [2] [nM] | Structure (SMILES) |
| --- | --- | --- | --- |
| 248 | 737 | – | O=C(Cc1nc(N2CCOCC2)cc(=O)[nH]1)Nc1cccc(F)c1F [Example 12, N-(2,3-difluorophenyl)-2-[4-(morpholin-4-yl)-6-oxo-1,6-dihydropyrimidin-2-yl]acetamide] |
| > 260 | 10000 | – | O=C(Cc1nc(N2CCOCC2)cc(=O)[nH]1)Nc1ccc(F)c(CO)c1 [Example 35, N-[4-fluoro-3-(hydroxymethyl)phenyl]-2-[4-(morpholin-4-yl)-6-oxo-1,6-dihydropyrimidin-2-yl]acetamide] |
| 246 | 200 | – | O=C(Cc1nc(N2CCOCC2)cc(=O)[nH]1)Nc1cccc(C2CC2)c1 [Example 36, N-(3-cyclopropylephenyl)-2-[4-(morpholin-4-yl)-6-oxo-1,6-dihydropyrimidin-2-yl]acetamide] |
| > 260 | 10000 | – | O=C(Cc1nc(N2CCOCC2)cc(=O)[nH]1)Nc1ccccc1O [Example 37, N-(2-hydroxyphenyl)-2-[4-(morpholin-4-yl)-6-oxo-1,6-dihydropyrimidin-2-yl]acetamide] |
| 194 | 2500 | – | CC(C)(C)OC(=O)NCCc1cccc(NC(=O)Cc2nc(N3CCOCC3)cc(=O)[nH]2)c1 [Example 46, 2-methylpropan-2-yl {2-[3-({[4-(morpholin-4-yl)-6-oxo-1,6-dihydropyrimidin-2-yl]acetyl}amino)phenyl]ethyl}-carbamate] |
| 266 | 250 | – | Cn1c(CC(=O)Nc2cccc(Br)c2)nc(N2CCOCC2)cc1=O [Example 69, N-(3-bromophenyl)-2-[1-methyl-4-(morpholin-4-yl)-6-oxo-1,6-dihydropyrimidin-2-yl]acetamide] |
| 220 | 650 | – | COCc1cc(NC(=O)Cc2nc(N3CCOCC3)cc(=O)[nH]2)ccc1F [Example 73, N-[4-fluoro-3-(methoxymethyl)phenyl]-2-[4-(morpholin-4-yl)-6-oxo-1,6-dihydropyrimidin-2-yl]acetamide] |
| 234 | – | 533 | O=C(Cc1nc(N2CCOCC2)cc(=O)[nH]1)N1CCc2c(CO)cccc21 [Example 132, 2-{2-[4-(hydroxymethyl)-2,3-dihydro-1H-indol-1-yl]-2-oxoethyl}-6-(morpholin-4-yl)pyrimidin-4(3H)-one] |
| 256 | – | 26 | CN(C)C[C@H]1CN(C(=O)Cc2nc(N3CCOCC3)cc(=O)[nH]2)c2ccccc21 [Example 136, 2-(2-{(3S)-3-[(dimethylamino)methyl]-2,3-dihydro-1H-indol-1-yl}-2-oxoethyl)-6-(morpholin-4-yl)pyrimidin-4(3H)-one] |
| 243 | – | 473 | O=C(Cc1nc(N2CCOCC2)cc(=O)[nH]1)Nc1cccc2c1OCCN2 [Example 143, N-(3,4-dihydro-2H-1,4-benzoxazin-8-yl)-2-[4-(morpholin-4-yl)-6-oxo-1,6-dihydropyrimidin-2-yl]acetamide] |
| 202 | – | 38 | CCN(CC)CC1CN(C(=O)Cc2nc(N3CCOCC3)cc(=O)[nH]2)c2ccccc21 (stereo not drawn) [Example 145, 2-(2-{3-[(diethylamino)methyl]-2,3-dihydro-1 H-indol-1-yl}-2-oxoethyl)-6-(morpholin-4-yl)pyrimidin-4(3 H)-one] |
| 232 | – | 234 | O=C(Cc1nc(N2CCOCC2)cc(=O)[nH]1)Nc1cccc2c1NCCC2 [Example 148, 2-[4-(morpholin-4-yl)-6-oxo-1,6-dihydropyrimidin-2-yl]-N-(1,2,3,4-tetrahydroquinolin-8-yl)acetamide] |
